Measured values as given in ChEMBL document CHEMBL1158303, “Macrocarpals H, I, and J from the Leaves of Eucalyptus globulus” (1996).
In brackets after ≈: the same amount, converted by molar mass.

Columns and labels:
Streptococcus sobrinus [1] = test: Antibacterial activity against Streptococcus sobrinus 6715 by broth dilution method; type: functional
Porphyromonas gingivalis = test: Antibacterial activity against Porphyromonas gingivalis 33277 by broth dilution method; type: functional
[2] = test system: Prevotella melaninogenica; test: Antibacterial activity against Prevotella melaninogenica 25845 by broth dilution method; type: functional
Actinomyces viscosus = test: Antibacterial activity against Actinomyces viscosus 15987 by broth dilution method; type: functional
Fusobacterium nucleatum = test: Antibacterial activity against Fusobacterium nucleatum 25586 by broth dilution method; type: functional
Streptococcus mutans [3] = test: Antibacterial activity against Streptococcus mutans LA7 by broth dilution method; type: functional
Streptococcus mutans [4] = test: Antibacterial activity against Streptococcus mutans Ingbritt by broth dilution method; type: functional
Streptococcus sobrinus [5] = test: Inhibition of Streptococcus sobrinus glucosyltransferase assessed as blockade of adherent water insoluble glucan synthesis at 1 ug/mL
Capnocytophaga ochracea = test: Antibacterial activity against Capnocytophaga ochracea 33596 by broth dilution method; type: functional
Streptococcus sobrinus [6] = test: Inhibition of Streptococcus sobrinus glucosyltransferase assessed as blockade of adherent water insoluble glucan synthesis at 10 ug/mL
Prevotella intermedia = test: Antibacterial activity against Prevotella intermedia 25611 by broth dilution method; type: functional
Streptococcus sobrinus [7] = test: Inhibition of Streptococcus sobrinus glucosyltransferase assessed as blockade of adherent water insoluble glucan synthesis at 100 ug/mL
Streptococcus sobrinus [8] = test: Antibacterial activity against Streptococcus sobrinus B13 by broth dilution method; type: functional

Row | Structure (SMILES) | MIC (Streptococcus sobrinus [1]) [µg/mL] | MIC (Porphyromonas gingivalis) [µg/mL] | MIC [2] [µg/mL] | MIC (Actinomyces viscosus) [µg/mL] | MIC (Fusobacterium nucleatum) [µg/mL] | MIC (Streptococcus mutans [3]) [µg/mL] | MIC (Streptococcus mutans [4]) [µg/mL] | inhibition (Streptococcus sobrinus [5]) [%] | MIC (Capnocytophaga ochracea) [µg/mL] | inhibition (Streptococcus sobrinus [6]) [%] | MIC (Prevotella intermedia) [µg/mL] | inhibition (Streptococcus sobrinus [7]) [%] | MIC (Streptococcus sobrinus [8]) [µg/mL]
1 | CC(C)C[C@@H](c1c(O)c(C=O)c(O)c(C=O)c1O)[C@@]1(C)CC[C@@H]2[C@@H]1[C@H]1[C@@H](CC[C@@]2(C)O)C1(C)C [MACROCARPAL A] | 1.56 (≈ 3.3 µM) | 0.39 (≈ 0.825 µM) | 0.78 (≈ 1.65 µM) | 0.39 (≈ 0.825 µM) | 6.25 (≈ 13.2 µM) | 0.78 (≈ 1.65 µM) | 0.78 (≈ 1.65 µM) | 9.7 | 0.78 (≈ 1.65 µM) | 75.4 | 0.39 (≈ 0.825 µM) | 97.1 | 1.56 (≈ 3.3 µM)
2 | C=C1CC[C@@H]2[C@H]([C@H]3[C@H]1CC[C@]3(C)[C@@H](CC(C)C)c1c(O)c(C=O)c(O)c(C=O)c1O)C2(C)C [MACROCARPAL C] | 1.56 (≈ 3.43 µM) | 0.2 (≈ 0.44 µM) | 1.56 (≈ 3.43 µM) | 0.2 (≈ 0.44 µM) | 0.78 (≈ 1.72 µM) | 0.39 (≈ 0.858 µM) | 0.39 (≈ 0.858 µM) | 18.9 | 0.39 (≈ 0.858 µM) | 92.6 | 0.39 (≈ 0.858 µM) | 98.9 | 1.56 (≈ 3.43 µM)
3 | Cc1ccc(C(C)C)c(O)c1 [THYMOL] | 200 (≈ 1330 µM) | 200 (≈ 1330 µM) | 200 (≈ 1330 µM) | 200 (≈ 1330 µM) | 50 (≈ 333 µM) | 400 (≈ 2660 µM) | 400 (≈ 2660 µM) | – | 100 (≈ 666 µM) | – | 200 (≈ 1330 µM) | – | 400 (≈ 2660 µM)
4 | CC(C)C[C@H](c1c(O)c(C=O)c(O)c(C=O)c1O)[C@@]1(C)CC[C@@H]2[C@@H]1[C@H]1[C@@H](CC[C@@]2(C)O)C1(C)C [MACROCARPAL B] | 3.13 (≈ 6.62 µM) | 0.78 (≈ 1.65 µM) | 3.13 (≈ 6.62 µM) | 0.39 (≈ 0.825 µM) | 3.13 (≈ 6.62 µM) | 1.56 (≈ 3.3 µM) | 3.13 (≈ 6.62 µM) | 10.1 | 1.56 (≈ 3.3 µM) | 67.6 | 1.56 (≈ 3.3 µM) | 97.1 | 3.13 (≈ 6.62 µM)
5 | CC(C)C[C@H](c1c(O)c(C=O)c(O)c(C=O)c1O)[C@@H]1CC[C@@](C)(O)[C@@H]2C[C@H](C(C)(C)O)CC[C@]21C [MACROCARPAL I] | 100 (≈ 204 µM) | 6.25 (≈ 12.7 µM) | 12.5 (≈ 25.5 µM) | 12.5 (≈ 25.5 µM) | 25 (≈ 51 µM) | 25 (≈ 51 µM) | 50 (≈ 102 µM) | 0 | 12.5 (≈ 25.5 µM) | 26.3 | 12.5 (≈ 25.5 µM) | 86.9 | 100 (≈ 204 µM)
6 | CC(=O)CC[C@@H]1[C@H]([C@H]2C(=O)CC[C@]2(C)C(CC(C)C)c2c(O)c(C=O)c(O)c(C=O)c2O)C1(C)C (some centres not stated) [EUCALYPTONE] | 25 (≈ 51.4 µM) | 1.56 (≈ 3.21 µM) | 3.13 (≈ 6.43 µM) | 3.13 (≈ 6.43 µM) | 6.25 (≈ 12.8 µM) | 12.5 (≈ 25.7 µM) | 12.5 (≈ 25.7 µM) | 4.4 | 3.13 (≈ 6.43 µM) | 44 | 0.78 (≈ 1.6 µM) | 97.6 | 25 (≈ 51.4 µM)
7 | O=C(O[C@@H]1Cc2c(O)cc(O)cc2O[C@@H]1c1cc(O)c(O)c(O)c1)c1cc(O)c(O)c(O)c1 | – | – | – | – | – | – | – | 3 | – | 10.5 | – | 26.5 | –
8 | C=C1CC[C@@H]([C@H](CC(C)C)c2c(O)c(C=O)c(O)c(C=O)c2O)[C@]2(C)CC[C@@H](C(C)(C)O)C[C@@H]12 [MACROCARPAL H] | 3.13 (≈ 6.62 µM) | 0.78 (≈ 1.65 µM) | 3.13 (≈ 6.62 µM) | 0.39 (≈ 0.825 µM) | 6.25 (≈ 13.2 µM) | 1.56 (≈ 3.3 µM) | 3.13 (≈ 6.62 µM) | 2.9 | 1.56 (≈ 3.3 µM) | 64 | 0.78 (≈ 1.65 µM) | 97.6 | 3.13 (≈ 6.62 µM)
9 | CC(C)CC(c1c(O)c(C=O)c(O)c(C=O)c1O)[C@@H]1CC[C@@](C)(O)[C@@H]2C[C@H](C(C)(C)O)CC[C@]21C (some centres not stated) [MACROCARPAL J] | 100 (≈ 204 µM) | 6.25 (≈ 12.7 µM) | 12.5 (≈ 25.5 µM) | 12.5 (≈ 25.5 µM) | 25 (≈ 51 µM) | 25 (≈ 51 µM) | 50 (≈ 102 µM) | 6.9 | 12.5 (≈ 25.5 µM) | 29.7 | 12.5 (≈ 25.5 µM) | 77.1 | 100 (≈ 204 µM)
10 | CC(C)C[C@@H](c1c(O)c(C=O)c(O)c(C=O)c1O)[C@@]1(C)CC[C@H]2C1=C[C@H](C(C)(C)O)CC[C@H]2C [MACROCARPAL D] | 3.13 (≈ 6.62 µM) | 0.39 (≈ 0.825 µM) | 1.56 (≈ 3.3 µM) | 0.39 (≈ 0.825 µM) | 6.25 (≈ 13.2 µM) | 0.78 (≈ 1.65 µM) | 1.56 (≈ 3.3 µM) | 17.3 | 1.56 (≈ 3.3 µM) | 78.2 | 0.39 (≈ 0.825 µM) | 99 | 0.78 (≈ 1.65 µM)
